Test results as given in patent EP4692079A1, “CYP11A1 INHIBITOR AND USE THEREOF” (priority 2023, dated 2024).
Read-outs that look alike come from different tables or passages of the source.

Tests used:
[1] = Pharmacokinetic test in rats; format: in vivo; details: rat, male SD rats, plasma; for Vd: read-out: Vdss
Procedure: 3.1 Experimental animals: Male SD rats (about 220 g, 6-8 weeks old, 6 rats/compound) were purchased from Chengdu Dossy Experimental Animals Co., Ltd.
3.2 Experimental design: On the day of the experiment, the SD rats were randomly grouped by body weight. […] Table 4 Administration information
Before and after the administration, 0.1 ml of blood was taken from the orbit of the animals under isoflurane anaesthesia and placed in an EDTAK2 centrifuge tube. The blood was centrifuged at 5000 rpm and 4°C for 10 min to collect plasma. […] Before analysis and detection, all samples were stored at -80°C. Table 5 Pharmacokinetic parameters of test compounds in plasma of rats

[2] = test system: testosterone level in NCI-H295R cells; experiment: cells; format: cell-based; details: Homo sapiens, NCI-H295R, 72 h; for IC50: read-out: Testosterone level in H295R (Elisa) IC50 nM
Procedure: The purpose of the experimental study was intended to detect the testosterone level in the NCI-H295R cells by adopting the Enzyme linked immunosorbent assay (ELISA), so as to evaluate the inhibitory effects of the compounds on the testosterone level in the NCI-H295R cells.
The H295R cells were purchased from ATCC, the cell complete medium contained DMEM: F12+ 10% FBS +0.00625 mg/ml insulin +0.00625 mg/ml transferrin+6.25 ng/ml selenium +1.25 mg/ml BSA+0.00535 mg/ml linoleic acid, and the cells were cultured in a 37°C, 5% CO2 incubator. The cells in the exponential growth phase were collected, and cultured in a cytokine-free medium (phenol red 1640-free +1% PS+10% css FBS+1.25 mg/ml BSA +0.00625 mg/ml insulin + 0.00625 mg/ml transferrin+6.25 ng/ml selenium+0.00535 mg/ml linoleic acid) for three days. The cells in the exponential growth phase were collected on the third day. The cell suspension was adjusted with a cytokine-free medium to a corresponding concentration and plated at 60000 cells/well, with the volume being 90 µL/well. Subsequently, 10 µL of the compounds at different concentrations was added and the plate was incubated in a CO2 incubator for three days. After the incubation was completed, according to the operation instructions for testosterone Elisa kit (Beyotime, PT872), 50 µL of the cell culture supernatant was collected from each well and centrifuged at 500 g for 5 min at room temperature and then the resulting supernatant was collected. The samples were added to the corresponding wells at 25 µl/well, and then formulated horseradish peroxidase labelled testosterone was added at 75 µl/well. The mixture was fully mixed for 10 seconds. The reaction wells were sealed with a plate-sealing film (white) and the mixture was incubated at room temperature in the dark for 120 min. The plate was washed three times with a volume of 300 µl per well, and then placed onto thick absorbent paper and dried. Chromogenic reagent TMB solution was added at 100 µl/well. The reaction wells were sealed with a plate-sealing film (white) and the mixture was incubated at room temperature in the dark for 15-20 min. Subsequently, a termination solution was added at 50 µl/well, and after the mixture was fully mixed, the absorbance value OD450 was immediately measured. The absorbance readings were processed using Graphpad Prim 8.0 software and S-shaped concentration curves were plotted and the IC50 values were calculated using a four-parameter non-linear regression model.

[3] = Pharmacokinetic test in mice; format: in vivo; details: mouse, male ICR mice, plasma
Procedure: 4.1. Experimental animals: Male ICR mice, 20-25 g, 6 mice/compound, were purchased from Chengdu Dossy Experimental Animals Co., Ltd.
4.2 Experimental design: on the day of the experiment, the ICR mice were randomly grouped according to their body weights. […] Table 6 Administration information
Before and after administration, 0.06 mL of blood was taken from the orbit under isoflurane anaesthesia and placed in an EDTAK2 centrifuge tube. The tube was centrifuged at 5000 rpm at 4°C for 10 min, and plasma was collected. […] Before analysis and detection, all samples were stored at -80°C, and the samples were quantitatively analysed by LC-MS/MS.

[4] = po, intragastric administration (10 mg/kg)
[5] = intravenous administration (2.5 mg/kg)
[6] = read-out: Testosterone level in H295R (Elisa) inh.% 100 nM
[7] = read-out: Testosterone level in H295R (Elisa) inh.% 1000 nM
[8] = read-out: Testosterone level in H295R (Elisa) inh.% 100 nM, 100 nM compound, NCI-H295R cells, three days incubation
[9] = read-out: Testosterone level in H295R (Elisa) inh.% 1000 nM, 1000 nM compound, NCI-H295R cells, three days incubation

Row | Structure (SMILES) | AUC(0-t) [1, 4] [ng·h/mL] | half-life [1, 4] [min] | inhibition at 0.1 µM [2, 6] [%] | inhibition at 1 µM [2, 7] [%] | inhibition at 0.1 µM [2, 8] [%] | inhibition at 1 µM [2, 9] [%] | also measured
1 | O=c1cc(CN2Cc3ccc(C(F)(F)F)cc3C2)occ1/C=C/[C@H]1CC[C@H](NC(=O)[C@H]2C[C@@H](F)C2)CC1 [Compound 100] | 17500 | 137 | 70 | 85 |  |  | AUC(0-t) [1, 5]: 4660 ng·h/mL; clearance [1, 5]: 8.86 mL/min/kg; half-life [1, 5]: 108 min; Vd [1, 5]: 1.29 L/kg
2 | O=C(N[C@H]1CC[C@@H](COc2coc(CN3Cc4ccc(C(F)(F)F)cc4C3)cc2=O)CC1)C1COC1 [Compound 54] |  |  | 53.2 | 72.2 |  |  | AUC(0-t) [3, 4]: 28100 ng·h/mL; half-life [3, 4]: 178 min; AUC(0-t) [3, 5]: 5870 ng·h/mL; clearance [3, 5]: 7.19 mL/min/kg; half-life [3, 5]: 179 min; Vd ([3]; intravenous administration (2.5 mg/kg), read-out: Vdss): 1.17 L/kg
3 | O=C(OC1CC1)N1CCC(/C=C/c2coc(CN3Cc4ccc(C(F)(F)F)cc4C3)cc2=O)CC1 [Compound 31] | 13400 | 339 |  |  |  |  | AUC(0-t) [1, 5]: 4270 ng·h/mL; clearance [1, 5]: 9.48 mL/min/kg; half-life [1, 5]: 310 min; Vd [1, 5]: 3.41 L/kg
4 | O=C(N[C@H]1CC[C@H](COc2coc(CN3Cc4ccc(C(F)(F)F)cc4C3)cc2=O)CC1)C1COC1 [Compound 63] | 19100 | 131 | 64 | 75 |  |  | 
5 | O=C(CC1CC1)N1CCC(/C=C/c2coc(CN3Cc4ccc(C(F)(F)F)cc4C3)cc2=O)CC1 [Compound 52] | 10500 | 133 | 55.8 | 74.9 |  |  | AUC(0-t) [1, 5]: 3300 ng·h/mL; clearance [1, 5]: 12.3 mL/min/kg; half-life [1, 5]: 82.2 min; Vd [1, 5]: 1.39 L/kg; IC50 [2]: 98.2 nM
6 | CS(=O)(=O)N1CC(OC(=O)N[C@H]2CC[C@H](COc3coc(CN4Cc5ccc(C(F)(F)F)cc5C4)cc3=O)CC2)C1 [Compound 64] | 10100 | 175 | 73 | 75 |  |  | AUC(0-t) [1, 5]: 3440 ng·h/mL; clearance [1, 5]: 12.1 mL/min/kg; half-life [1, 5]: 159 min; Vd [1, 5]: 2.09 L/kg
7 | CS(=O)(=O)N1CC(OC(=O)N2CCC(COc3coc(CN4Cc5ccc(S(F)(F)(F)(F)F)cc5C4)cc3=O)CC2)C1 [Compound 19] |  |  |  |  | 64.8 | 78.3 | 
8 | O=c1cc(CN2Cc3ccc(C(F)(F)F)cc3C2)occ1/C=C/[C@H]1CC[C@H](NS(=O)(=O)CC2CC2)CC1 [Compound 62] |  |  |  |  | 67 | 79 | 
9 | CS(=O)(=O)N[C@H]1C[C@H](C(=O)N2CCC(COc3coc(CN4Cc5ccc(C(F)(F)F)cc5C4)cc3=O)CC2)C1 [Compound 72] |  |  |  |  | 58 | 68 | 
10 | O=c1cc(CN2Cc3ccc(C(F)(F)F)cc3C2)occ1/C=C/[C@H]1CC[C@H](NC(=O)[C@H]2C[C@H](F)C2)CC1 [Compound 101] | 11600 | 215 | 73 | 71 |  |  | AUC(0-t) [1, 5]: 5640 ng·h/mL; clearance [1, 5]: 7.45 mL/min/kg; half-life [1, 5]: 178 min; Vd [1, 5]: 1.47 L/kg
11 | CS(=O)(=O)N1CC(OC(=O)N2CCC(/C=C/c3coc(CN4Cc5ccc(C(F)(F)F)cc5C4)cc3=O)CC2)C1 [Compound 26] |  |  |  |  | 61 | 78 | 
12 | C/C(=C\[C@H]1CC[C@H](NC(=O)c2cnn(C)c2)CC1)c1coc(CN2Cc3ccc(C(F)(F)F)cc3C2)cc1=O [Compound 107] | 22500 | 249 | 60 | 78 |  |  | AUC(0-t) [1, 5]: 6030 ng·h/mL; clearance [1, 5]: 6.96 mL/min/kg; half-life [1, 5]: 203 min; Vd [1, 5]: 1.55 L/kg
13 | O=C(N[C@H]1CC[C@H](C(=O)Nc2coc(CN3Cc4ccc(C(F)(F)F)cc4C3)cc2=O)CC1)C1CC1 [Compound 119] |  |  |  |  | 60 | 81 | 
14 | CS(=O)(=O)N1CCC2(CC1)CC(C(=O)N1CCC(COc3coc(CN4Cc5ccc(C(F)(F)F)cc5C4)cc3=O)CC1)C2 [Compound 75] |  |  |  |  | 69 | 78 | 
15 | O=C(CC1CC1)N1CCC(/C=C/c2coc(CN3Cc4ccc(C5CC5)cc4C3)cc2=O)CC1 [Compound 16] |  |  |  |  | 55 | 79.6 | IC50 [2]: 98.3 nM
16 | O=C(C1CC(F)(F)C1)N1CCC(COc2coc(CN3Cc4ccc(C(F)(F)F)cc4C3)cc2=O)CC1 [Compound 73] |  |  |  |  | 83 | 87 | 
17 | CC1(NC2CCC(/C=C/c3coc(CN4Cc5ccc(C(F)(F)F)cc5C4)cc3=O)CC2)COC1 (single isomer, unassigned) [Compound 122] |  |  |  |  | 63 | 82 | 
18 | O=C(N[C@H]1CC[C@H](COc2coc(CN3Cc4ccc(C(F)(F)F)cc4C3)cc2=O)CC1)[C@H]1CC1(F)F [Compound 65] |  |  |  |  | 80 | 78 | 
19 | O=c1cc(CN2Cc3ccc(C(F)(F)F)cc3C2)occ1OC[C@H]1CC[C@@H](NS(=O)(=O)CC2CC2)CC1 [Compound 10] |  |  |  |  | 63 | 79.7 | 
20 | O=C(N[C@H]1CC[C@@H](COc2coc(CN3Cc4ccc(C(F)(F)F)cc4C3)cc2=O)CC1)C1CC1(F)F (stereo partly drawn) [Compound 55] |  |  |  |  | 63 | 72.7 | 
21 | O=C(O[C@H]1CCOC1)N1CCC(/C=C/c2coc(CN3Cc4ccc(OC5CC5)cc4C3)cc2=O)CC1 [Compound 48] |  |  |  |  | 72.4 | 78.5 | 
22 | O=C(OC1CC1)N1CCC(COc2coc(CN3Cc4ccc(OC5CCC5)cc4C3)cc2=O)CC1 [Compound 49] |  |  |  |  | 67.3 | 75.2 | 
23 | O=C(OC1CC1)N1CC(/C=C/c2coc(CN3Cc4ccc(C(F)(F)F)cc4C3)cc2=O)C1 [Compound 53] |  |  |  |  | 61 | 67.3 | 
